# Laboratory results as given in patent US20160074462A1, “Method of Treating HCV” (priority 2014, published 2016).
# Settings: human, in vivo
# Text: Food effect on the drug exposure (e.g., AUC) of Compound 1/r, Compound 2 and Compound 3 was not known. Food effect on the drug exposure of these compounds was also not considered predictable.
# The increase in exposure was similar regardless of meal type (e.g., high-fat vs. moderate-fat) or calorie content (500-600 kcal vs. 1000 kcal). Therefore, the combination of Compound 1/r, Compound 2 and Compound 3, the combination of Compound 1/r and Compound 3, as well as the combination of Compound 1/r and Compound 2, can be taken with food without regard to the specific fat or calorie content.
row,increase of exposure (AUC) by food,SMILES
1,≤ 53%,"COc1c(-c2ccc3cc(NS(C)(=O)=O)ccc3c2)cc(-n2ccc(=O)[nH]c2=O)cc1C(C)(C)C [Compound 2, N-(6-(3-tert-butyl-5-(2,4-dioxo-3,4-dihydropyrimidin-1(2H)-yl)-2-methoxyphenyl)naphthalen-2-yl)methanesulfonamide]"
2,≤ 63%,"CC(C)c1nc(CN(C)C(=O)N[C@H](C(=O)N[C@@H](Cc2ccccc2)C[C@H](O)[C@H](Cc2ccccc2)NC(=O)OCc2cncs2)C(C)C)cs1 [ritonavir, reference compound]"
3,≤ 367%,"Cc1cnc(C(=O)N[C@H]2CCCCC/C=C\[C@@H]3C[C@@]3(C(=O)NS(=O)(=O)C3CC3)NC(=O)[C@@H]3C[C@@H](Oc4nc5ccccc5c5ccccc45)CN3C2=O)cn1 [Compound 1, (2R,6S,13aS,14aR,16aS,Z)-N-(cyclopropylsulfonyl)-6-(5-methylpyrazine-2-carboxamido)-5,16-dioxo-2-(phenanthridin-6-yloxy)-1,2,3,5,6,7,8,9,10,11,13a,14,14a,15,16,16a-hexadecahydrocyclopropa[e]pyrrolo[1,2-a][1,4]diazacyclop entadecine-14a-carboxamide]"
4,up to 127%,COC(=O)N[C@H](C(=O)N1CCCC1C(=O)Nc1ccc(C2CC[C@@H](c3ccc(NC(=O)[C@@H]4CCCN4C(=O)[C@@H](NC(=O)OC)C(C)C)cc3)N2c2ccc(C(C)(C)C)cc2)cc1)C(C)C (stereo partly shown) [Compound 3]
